This is an account of results in PubChem BioAssay (NCI).

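Briefly, cells in 96-well plates were exposed to five compound concentrations for 48 h, and endpoints were estimated by linear interpolation. The concentration for full growth arrest is given as TGI.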

Test systems include HCT-116 colon; MCF7 breast; SW-620 colon; SF-295 CNS; NCI-H522 lung; OVCAR-3 ovarian; SR leukemia; UACC-257 melanoma; LOX IMVI melanoma; NCI-H23 lung; M14 melanoma.
Common to all, as to assay: NCI-60 cell line screen, 48 h

`COc1cccc(C2c3cc4c(cc3OC(N3CCCCC3)C2C)OCO4)c1O` (centres undefined): the TGI in the assay on HCT-116 colon is 19.9 µM; with MCF7 breast, 57.7 µM; in the assay with SW-620 colon, > 87.8 µM; in the assay with SF-295 CNS, 24.3 µM; in the assay on NCI-H522 lung it was 8.53 µM; with OVCAR-3 ovarian, 9.14 µM. For the same compound, the TGI was 11.8 µM in the assay with SR leukemia; > 56.6 µM in the assay with UACC-257 melanoma; 41.7 µM with LOX IMVI melanoma; > 71.6 µM with NCI-H23 lung; 22.6 µM in the assay on M14 melanoma.
For `O=C1C=CC(=O)c2c1ccc1c3ccccc3n(CCCCCn3c4ccccc4c4ccc5c(c43)C(=O)C=CC5=O)c21`, the TGI was 25.7 µM in the assay on HCT-116 colon; 43.3 µM with MCF7 breast; 26.8 µM with SW-620 colon; > 100 µM in the assay on SF-295 CNS; 4.37 µM in the assay on NCI-H522 lung; 34.4 µM with OVCAR-3 ovarian. For the same compound, the TGI with SR leukemia was 6.22 µM; with UACC-257 melanoma it was 39.5 µM; in the assay with LOX IMVI melanoma, 35 µM; with NCI-H23 lung, 32.8 µM; in the assay with M14 melanoma, 39.3 µM.
Turning to `Cc1ccc(S(=O)(=O)c2[nH]cc(/C(=C\C3CCCCC3)[N+](=O)[O-])c2C2CCCCC2)cc1`, the TGI with HCT-116 colon was 0.468 µM; in the assay with MCF7 breast, > 100 µM; in the assay with SW-620 colon, 3.67 µM; in the assay with SF-295 CNS it was > 20.6 µM; in the assay with NCI-H522 lung, 0.541 µM; in the assay on OVCAR-3 ovarian, 0.981 µM. Moreover, the TGI was 0.891 µM in the assay on SR leukemia; 1.2 µM in the assay on UACC-257 melanoma; 0.439 µM with LOX IMVI melanoma; 3.1 µM in the assay with NCI-H23 lung; 1.15 µM in the assay with M14 melanoma.
As for `Cc1n(Cc2ccccc2)c2c([n+]1C)C(=O)c1ccccc1C2=O`, the TGI was 0.512 µM with HCT-116 colon; 0.079 µM in the assay on MCF7 breast; 0.763 µM in the assay with SW-620 colon; 0.554 µM with SF-295 CNS; 0.135 µM in the assay on NCI-H522 lung; 0.0771 µM with OVCAR-3 ovarian. In addition, the TGI in the assay with SR leukemia is > 45.5 µM; in the assay with UACC-257 melanoma, 0.14 µM; in the assay with LOX IMVI melanoma, 0.401 µM; in the assay on NCI-H23 lung, 0.177 µM; with M14 melanoma, 0.282 µM.
Take `COC[C@@H](N=CC(C)(C)C)C(C)C`: the TGI in the assay on HCT-116 colon, in the assay on MCF7 breast, in the assay on SW-620 colon, in the assay with SF-295 CNS, in the assay on NCI-H522 lung and in the assay with OVCAR-3 ovarian was > 100 µM each time. Moreover, the TGI with SR leukemia, with UACC-257 melanoma, with LOX IMVI melanoma, in the assay with NCI-H23 lung and in the assay on M14 melanoma was > 100 µM each time.
For `Cc1ccc(-n2cnc(C(=N)C#N)c2N)cc1`, the TGI with HCT-116 colon, in the assay with MCF7 breast, with SW-620 colon, in the assay on SF-295 CNS, in the assay with NCI-H522 lung and with OVCAR-3 ovarian was > 100 µM in each case. Moreover, the TGI in the assay with SR leukemia, in the assay on UACC-257 melanoma, with LOX IMVI melanoma, in the assay with NCI-H23 lung and in the assay on M14 melanoma was > 100 µM in each case.
Take `C/C=C/C(CC(O)(C(F)(F)F)C(F)(F)F)=N/NC(N)=S`: the TGI with HCT-116 colon, in the assay on MCF7 breast, with SW-620 colon, in the assay on SF-295 CNS, in the assay with NCI-H522 lung and with OVCAR-3 ovarian was > 10 µM in each case. The TGI in the assay on SR leukemia, in the assay with UACC-257 melanoma, in the assay on LOX IMVI melanoma, in the assay on NCI-H23 lung and with M14 melanoma was > 10 µM in each case.
With `Cc1[nH]c(=O)nc2nc3ccc(Cl)cc3c(NCCNCCO)c12`, the TGI in the assay with HCT-116 colon was found to be 18.5 µM; with MCF7 breast it was 26.6 µM; in the assay with SW-620 colon it was 19.6 µM; in the assay on SF-295 CNS it was 30.2 µM; in the assay with NCI-H522 lung, 12.9 µM; in the assay on OVCAR-3 ovarian, 25.2 µM. Moreover, the TGI is > 100 µM with SR leukemia; 25 µM with UACC-257 melanoma; 21 µM in the assay with LOX IMVI melanoma; 21.5 µM with NCI-H23 lung; 25.8 µM in the assay on M14 melanoma.
As for `Cc1ccc(C2SCC(=O)N2c2ccc(-n3c(-c4ccccc4)nc4ccccc4c3=O)cc2)cc1` (centres undefined), the TGI is 23.1 µM in the assay with HCT-116 colon; > 100 µM in the assay on MCF7 breast; > 100 µM with SW-620 colon; 44.7 µM in the assay on SF-295 CNS; 58.6 µM with NCI-H522 lung; 51.9 µM in the assay with OVCAR-3 ovarian. Also, the TGI in the assay on SR leukemia was > 100 µM; with UACC-257 melanoma, 69.8 µM; in the assay on LOX IMVI melanoma, 48.5 µM; in the assay on NCI-H23 lung, > 100 µM; with M14 melanoma, 69.2 µM.
As for `O=[N+]([O-])c1ccc(CN(CCCl)OCCCl)cc1`, the TGI with HCT-116 colon, with MCF7 breast, with SW-620 colon, in the assay with SF-295 CNS, with NCI-H522 lung and in the assay on OVCAR-3 ovarian was > 100 µM in each case. The TGI with SR leukemia, with UACC-257 melanoma, with LOX IMVI melanoma, in the assay on NCI-H23 lung and in the assay with M14 melanoma was > 100 µM throughout.
On to `CN1CCc2c([nH]c3ccccc23)C1`, for which the TGI with HCT-116 colon, in the assay on MCF7 breast, in the assay on SW-620 colon, in the assay on SF-295 CNS, in the assay with NCI-H522 lung and in the assay on OVCAR-3 ovarian was > 100 µM in each case. The TGI with SR leukemia, with UACC-257 melanoma, with LOX IMVI melanoma, in the assay with NCI-H23 lung and in the assay with M14 melanoma was > 100 µM in each case.
Take `O=c1[nH]nnc2c1sc1ncccc12`: the TGI with HCT-116 colon, with MCF7 breast, in the assay on SW-620 colon, with SF-295 CNS, with NCI-H522 lung and in the assay on OVCAR-3 ovarian was > 100 µM each time. Besides, the TGI with SR leukemia, with UACC-257 melanoma, in the assay with LOX IMVI melanoma, in the assay on NCI-H23 lung and in the assay on M14 melanoma was > 100 µM in each case.
On to `COc1cc(C2c3cc4c(cc3OC(N3CCCCC3)C2C)OCO4)cc(OC)c1O` (centres undefined), for which the TGI in the assay on HCT-116 colon is 25.7 µM; in the assay with MCF7 breast, > 43 µM; in the assay on SW-620 colon it was 21.9 µM; with SF-295 CNS it was 13.4 µM; in the assay with NCI-H522 lung, 22.2 µM; in the assay with OVCAR-3 ovarian it was 19.8 µM. In addition, the TGI in the assay with SR leukemia was > 44.5 µM; in the assay on UACC-257 melanoma, 41.9 µM; in the assay with LOX IMVI melanoma it was > 59.8 µM; with NCI-H23 lung, > 66.9 µM; in the assay on M14 melanoma it was > 69.4 µM.
On to `Brc1ccc2[nH]cc(-c3csc(-c4c[nH]c5ccccc45)n3)c2c1`, for which the TGI with HCT-116 colon was 6.66 µM; in the assay on MCF7 breast, > 100 µM; with SW-620 colon, 8.23 µM; in the assay on SF-295 CNS, 6.32 µM; with NCI-H522 lung, 3.53 µM; in the assay with OVCAR-3 ovarian, 11.8 µM. For the same compound, the TGI is 10.4 µM in the assay on SR leukemia; 17.8 µM with UACC-257 melanoma; 4.5 µM in the assay with LOX IMVI melanoma; 8.21 µM with NCI-H23 lung; 5.14 µM in the assay with M14 melanoma.
As to `c1ccc(N=C(N2CCCC2)N(CCN2CCCC2)c2ccccc2)cc1`, the TGI with HCT-116 colon is > 100 µM; in the assay with MCF7 breast it was > 100 µM; in the assay on SW-620 colon, > 100 µM; in the assay on SF-295 CNS it was 35.6 µM; in the assay on NCI-H522 lung it was > 100 µM; with OVCAR-3 ovarian, > 100 µM. Also, the TGI in the assay with SR leukemia is > 100 µM; in the assay on UACC-257 melanoma, 67.6 µM; in the assay with LOX IMVI melanoma, > 100 µM; with NCI-H23 lung it was > 100 µM; with M14 melanoma, 27 µM.
In the case of `CC(C)(C)OC(=O)N(CCCCN(CCCNC(=O)C(F)(F)F)C(=O)OC(C)(C)C)CCCNC(=O)C(F)(F)F`, the TGI with HCT-116 colon, with MCF7 breast, in the assay with SW-620 colon, in the assay with SF-295 CNS, in the assay on NCI-H522 lung and in the assay with OVCAR-3 ovarian was > 100 µM in each case. For the same compound, the TGI with SR leukemia, in the assay on UACC-257 melanoma, in the assay with LOX IMVI melanoma, with NCI-H23 lung and in the assay with M14 melanoma was > 100 µM in each case.
Regarding `Nc1c(C(=O)O)nnc2ccc(Cl)cc12`, the TGI in the assay on HCT-116 colon, in the assay with MCF7 breast, in the assay with SW-620 colon, in the assay with SF-295 CNS, in the assay with NCI-H522 lung and in the assay on OVCAR-3 ovarian was > 100 µM throughout. Also, the TGI in the assay on SR leukemia, in the assay on UACC-257 melanoma, in the assay with LOX IMVI melanoma, in the assay on NCI-H23 lung and in the assay on M14 melanoma was > 100 µM throughout.
Turning to `COc1cccc(C(=O)Oc2ccc(OS(=O)(=O)c3ccc(C)cc3)cc2)c1C#N`, the TGI in the assay with HCT-116 colon, in the assay with MCF7 breast, in the assay on SW-620 colon, in the assay with SF-295 CNS, in the assay on NCI-H522 lung and with OVCAR-3 ovarian was > 100 µM in each case. For the same compound, the TGI was > 100 µM in the assay on SR leukemia; 96.6 µM in the assay on UACC-257 melanoma; > 100 µM in the assay with LOX IMVI melanoma; > 100 µM with NCI-H23 lung; > 100 µM in the assay on M14 melanoma.
As for `COc1ccc(C2SC(N)=Nc3c2c(C)nn3C(=O)c2ccncc2)cc1OC` (centres undefined), the TGI with HCT-116 colon, with MCF7 breast, in the assay on SW-620 colon, in the assay with SF-295 CNS, in the assay with NCI-H522 lung and with OVCAR-3 ovarian was > 10 µM in each case. Moreover, the TGI with SR leukemia, in the assay with UACC-257 melanoma, in the assay with LOX IMVI melanoma, with NCI-H23 lung and in the assay with M14 melanoma was > 10 µM in each case.
